# Reference: US4997757A, “Process for detecting potential carcinogens” (GeneBioMed, Inc., priority 1988, dated 1991)
# Where two headings read alike, the source gives them in different places.
# Experiments:
# [1] = test system: strain RS112 (his3 deletion alleles); experiment: SCC (sister chromatid conversion) intrachromosomal recombination system, deletion alleles of his3; type: cell-based, Saccharomyces cerevisiae; conditions: for SCC/10^4 cells: strain RS112
# From the text: (§1) In the most preferred embodiment it is preferable to grow the cells in a medium which selects against the occurrence of the genome rearrangement to keep the control values as low as possible. In the embodiment described in FIG. 1 it is shown that the LEU2 gene of construct 10 is lost after the genome rearrangement which results in construct 22. Therefore cells containing construct 10, before the rearrangement are able to grow in the absence of leucine in the medium, but cells containing construct 22, after the genome rearrangement are not able to grow in the absence of leucine. After the genome rearrangement cells containing construct 22 are able to grow in the absence of histidine in the medium, but cells containing construct 10 before the genome rearrangement are not able to grow in the absence of histidine. Therefore the selection scheme which was used for Example 3 involves growth of the yeast culture in medium lacking leucine but containing histidine before and during the exposure to the potential carcinogens or other test agents. After the exposure the cells which have undergone genome rearrangement are selected on medium lacking histidine but containing leucine.
# (§2) It is preferred that, when the cells are to be grown in the presence of the agent, logarithmic phase cultures are used. In one embodiment, for each of the test strains, a cell suspension of 2×10^6 cells per milliliter-LEU medium be prepared from a logarithmic phase culture pregrown in liquid-LEU medium. The whole mix is aliquoted into portions of 5 milliliter into disposable plastic tubes in the presence of the agent to be tested, the tubes are sealed and shaken continuously for 17 hours.
# (§3) After the yeast cells have been exposed to both the agent to be tested and the selection medium under the conditions of the test and have been incubated for some time period of about more than one day preferably at 30 degrees Celsius or any other temperature which allows growth of the yeast cells used, the number of colonies formed by cells which have undergone genome rearrangement are counted and compared with the number of colonies of yeast cells identical in substantially every respect with the exception of not having been exposed to the suspected carcinogenic agent. The rates of genome rearrangement for both the control and experimental samples are then compared.
# (§4) Plasmids were constructed as substrates to study intrachromosomal recombination; see an earlier part of the specification and Example 1. The plasmids pRS6 (FIG. 7, construct 108) and pRS11 (FIG. 9, construct 118) both contained an internal fragment of the HIS3 gene as well as one selectable marker (LEU2). pRS11 in addition contained the 2 μm origin of replication to select for the presence of the plasmid after plasmid excision. pRS11FRT-had the FLP recombination site disrupted (see Example 1). Yeast strains RSY6 containing construct 10, RSY11 containing construct 118 and RSY11FRT- (see Example 1) were used. They contained the respective pRS plasmids integrated into the HIS3 gene of strain S35/2-10C giving rise to disruptions of the HIS3 gene construct 10 or analogs to it (FIG. 10). The two resulting his3 deletion alleles (FIG. 10) shared about 400 basepairs of homology and thus could interact with each other by homologous recombination. Reversion of his- to HIS+ occurred at a frequency of about 4×10^-4 in all three strains. All of 100 tested HIS+ revertants of strain RSY6 were leu-. Because of this observation strains used for recombination studies were always pregrown on -LEU medium to prevent growth of HIS+ revertants. Therefore the frequency of HIS+ revertants is a measure of the recombination rate.
# (§5) The strain used in this example was RS112 which was obtained by crossing strain RSY6 with strain 428. RSY6 contains the SCC system and was deposited at November 30 under "ATCC designation number 20871" with the American Type Culture Collection of 12301 Parklawn Drive, Rockville, Md. 20852. […]
# [2] = test system: strain RS112 (heteroalleles ade2-40 and ade2-101); experiment: ICC (interchromosomal gene conversion) between heteroalleles ade2-40 and ade2-101; type: cell-based, Saccharomyces cerevisiae; conditions: for ICC/10^5 cells: strain RS112
# Description: as §2
# (§6) The strain used in this example was RS112 which was obtained by crossing strain RSY6 with strain 428. RSY6 contains the SCC system and was deposited at November 30 under "ATCC designation number 20871" with the American Type Culture Collection of 12301 Parklawn Drive, Rockville, Md. 20852. Strain 428 was obtained from M. Snyder, Department of Biology, at Yale University, New Haven, Conn. and was used because it contains the mutation his3Δ-200, the construction of which has been described in an article by Struhl entitled "Naturally occurring poly(dA-dT) sequences are upstream promoter elements of constitutive transcription in yeast, published in Proc. Natl. Acad. Sci. USA 82 on pages 8419-8423. Strains containing the his3Δ-200 mutation are readily available to those skilled in the art.
# Strain RS112 has the following genotype: [drawing 2]
# Values for the intrachromosomal recombination system between deletion alleles of his3 are designated as SCC. Also strain RS112 contained heteroallelic mutations in ade2 so that the frequency of interchromosomal gene conversion (ICC) between heteroalleles in a diploid was determined. ICC was measured as recombination between the heteroalleles ade2-40 and ade2-101 by selecting for ADE+. Values obtained are given to compare the performance of the two systems.
# The frequencies for ICC are given in events per 10^5 survivals, and the frequencies for SCC are given in events per 10^4 survivals. It has to be noted that for sister chromatid recombination in mammalian cells the increase even with potent carcinogens is usually less than ten fold and also slight increases have been taken as positive results. For instance an increase in frequency of two fold has been taken to be significant; see a publication by Rudiger et al. entitled "Metabolites of diethylstilbestrol induce sister chromatid exchange in human cultured fibroblasts." published in Nature 281:392-394).
# [3] = survival of yeast exposed to agent; type: cell-based, Saccharomyces cerevisiae
# From the text: (§7) It is preferred to conduct a preliminary experiment to determine those concentrations of the agent to be tested which should be evaluated in the main experiment. Yeast cells are exposed to a wide range of concentrations of the agent to be tested to determine its cytotoxicity.
# as §2, §6
# Salmonella typhimurium = conditions: cited from earlier work
# mammalian cells [4] = conditions: cited from earlier work
# mammalian cells [5] = conditions: cited from earlier work; remark: listed apart in the source
# mice = conditions: cited from earlier work
# [6] = cited from earlier work; for carcinogenicity: in vivo
# [7] = SCC (sister chromatid conversion) intrachromosomal recombination system, deletion alleles of his3; type: cell-based, Saccharomyces cerevisiae; conditions: yeast strain rs112; versus untreated control; read-out: induction for SCC / increase in SCC
# From the text: as §1, §2, §3, §4, §5
# rats = conditions: cited from earlier work
# strain RS112 = experiment: survival of yeast exposed to agent; type: cell-based, Saccharomyces cerevisiae; conditions: 1020 min
# From the text: as §7, §2, §6
smiles,measurement,setting,value
CCOC(N)=O [Urethane],SCC/10^4 cells,[1]; 10 mg/ml,1.9 /10^4 cells
same,SCC/10^4 cells,[1]; 20 mg/ml,4.8 /10^4 cells
same,SCC/10^4 cells,[1]; 40 mg/ml,5.3 /10^4 cells
same,ICC/10^5 cells,[2]; 10 mg/ml,0.66 /10^5 cells
same,ICC/10^5 cells,[2]; 20 mg/ml,0.40 /10^5 cells
same,ICC/10^5 cells,[2]; 40 mg/ml,0.78 /10^5 cells
same,viability at 17 h,"[3]; yeast strain rs112, 10 mg/ml",107%
same,viability at 17 h,"[3]; yeast strain rs112, 20 mg/ml",51%
same,viability at 17 h,"[3]; yeast strain rs112, 40 mg/ml",10%
same,Ames Assay result,Salmonella typhimurium,negative
same,SCE assay result,mammalian cells [4],negative
same,chromosomal aberration assay result,mammalian cells [5],negative
same,carcinogenicity,mice,very effective in producing lung as well as skin tumors in mice
same,carcinogenicity,[6],known carcinogens
CCSCC[C@H](N)C(=O)O [Ethionine],SCC/10^4 cells,[1]; 10 mg/ml,4.8 /10^4 cells
same,SCC/10^4 cells,[1]; 20 mg/ml,5.4 /10^4 cells
same,ICC/10^5 cells,[2]; 10 mg/ml,0.77 /10^5 cells
same,ICC/10^5 cells,[2]; 20 mg/ml,0.80 /10^5 cells
same,viability at 17 h,"[3]; yeast strain rs112, 10 mg/ml",79%
same,viability at 17 h,"[3]; yeast strain rs112, 20 mg/ml",67%
same,Ames Assay result,Salmonella typhimurium,negative
same,SCE assay result,mammalian cells [4],negative
same,chromosomal aberration assay result,mammalian cells [5],negative
same,carcinogenicity,[6],liver carcinogen
same,carcinogenicity,[6]; listed as ethionine,known carcinogens
"O=[N+]([O-])c1cc[n+]([O-])c2ccccc12 [NQO, 4-nitroquinoline-N-oxide]",fold induction,[7],20 to 150
same,SCC result in words,[1],inducible
same,SCC/10^4 cells,[1]; 0.1 μg/ml,16.9 /10^4 cells
same,SCC/10^4 cells,[1]; 0.5 μg/ml,19.0 /10^4 cells
same,SCC/10^4 cells,[1]; 2 μg/ml,55.6 /10^4 cells
same,ICC result in words,[2],inducible
same,ICC/10^5 cells,[2]; 0.1 μg/ml,57.4 /10^5 cells
same,ICC/10^5 cells,[2]; 0.5 μg/ml,93 /10^5 cells
same,ICC/10^5 cells,[2]; 2 μg/ml,106 /10^5 cells
same,viability at 17 h,"[3]; yeast strain rs112, 0.1 μg/ml",84%
same,viability at 17 h,"[3]; yeast strain rs112, 0.5 μg/ml",74%
same,viability at 17 h,"[3]; yeast strain rs112, 2 μg/ml",13.3%
"COS(C)(=O)=O [MMS, methyl methane sulphonate]",fold induction,[7],20 to 150
same,SCC result in words,[1],inducible
same,SCC/10^4 cells,[1]; 0.001 %,3.9 /10^4 cells
same,SCC/10^4 cells,[1]; 0.005 %,11.4 /10^4 cells
same,SCC/10^4 cells,[1]; 0.01 %,46.6 /10^4 cells
same,SCC/10^4 cells,[1]; 0.02 %,129 /10^4 cells
same,ICC result in words,[2],inducible
same,ICC/10^5 cells,[2]; 0.001 %,1.9 /10^5 cells
same,ICC/10^5 cells,[2]; 0.005 %,14.4 /10^5 cells
same,ICC/10^5 cells,[2]; 0.01 %,42.3 /10^5 cells
same,ICC/10^5 cells,[2]; 0.02 %,62 /10^5 cells
same,viability at 17 h,"[3]; yeast strain rs112, 0.001 %",100%
same,viability at 17 h,"[3]; yeast strain rs112, 0.005 %",97%
same,viability at 17 h,"[3]; yeast strain rs112, 0.01 %",87%
same,viability at 17 h,"[3]; yeast strain rs112, 0.02 %",35%
C=O [Formaldehyde],fold induction,[7],~20
same,SCC result in words,[1],test positive
same,SCC/10^4 cells,[1]; 0.015 mg/ml,3.8 /10^4 cells
same,SCC/10^4 cells,[1]; 0.03 mg/ml,7.3 /10^4 cells
same,SCC/10^4 cells,[1]; 0.05 mg/ml,29.5 /10^4 cells
same,SCC/10^4 cells,[1]; 0.07 mg/ml,40.0 /10^4 cells
same,ICC result in words,[2],induces ICC
same,ICC/10^5 cells,[2]; 0.015 mg/ml,2.5 /10^5 cells
same,ICC/10^5 cells,[2]; 0.03 mg/ml,2.1 /10^5 cells
same,ICC/10^5 cells,[2]; 0.05 mg/ml,5.4 /10^5 cells
same,ICC/10^5 cells,[2]; 0.07 mg/ml,7.1 /10^5 cells
same,viability at 17 h,"[3]; yeast strain rs112, 0.015 mg/ml",97%
same,viability at 17 h,"[3]; yeast strain rs112, 0.03 mg/ml",53%
same,viability at 17 h,"[3]; yeast strain rs112, 0.05 mg/ml",4.2%
same,viability at 17 h,"[3]; yeast strain rs112, 0.07 mg/ml",2.2%
same,Ames Assay result,Salmonella typhimurium,negative
same,carcinogenicity,rats,causes nasal cancer in rats
same,carcinogenicity,[6],known carcinogen
same,tumor promotion,[6]; proposed,proposed to act as tumor promoter
Cc1c(N)c(=O)n(-c2ccccc2)n1C [Aminoantipyrine],SCC/10^4 cells,[1]; 10 mg/ml,1.02 /10^4 cells
same,SCC/10^4 cells,[1]; 20 mg/ml,1.80 /10^4 cells
same,SCC/10^4 cells,[1]; 40 mg/ml,25.8 /10^4 cells
same,ICC/10^5 cells,[2]; 10 mg/ml,0.75 /10^5 cells
same,ICC/10^5 cells,[2]; 20 mg/ml,1.8 /10^5 cells
same,survival,strain RS112; 10 mg/ml,97%
same,survival,strain RS112; 20 mg/ml,73.3%
same,survival,strain RS112; 40 mg/ml,0.89%
same,Ames Assay result,Salmonella typhimurium,negative
same,SCE assay result,mammalian cells [4],negative
same,chromosomal aberration assay result,mammalian cells [5],negative
same,carcinogenicity,mice,bladder carcinogen
same,carcinogenicity,[6],known carcinogens
C=CCc1ccc(O)c(OC)c1 [eugenol],SCC result in words,[1],test positive
"CCOS(C)(=O)=O [EMS, ethyl methanesulphonate]",fold induction,[7],20 to 150
same,SCC result in words,[1],inducible
same,SCC/10^4 cells,[1]; 0.02 %,4.1 /10^4 cells
same,SCC/10^4 cells,[1]; 0.1 %,18.1 /10^4 cells
same,SCC/10^4 cells,[1]; 0.2 %,25.3 /10^4 cells
same,ICC result in words,[2],inducible
same,ICC/10^5 cells,[2]; 0.02 %,1.3 /10^5 cells
same,ICC/10^5 cells,[2]; 0.1 %,15.8 /10^5 cells
same,ICC/10^5 cells,[2]; 0.2 %,28.9 /10^5 cells
same,viability at 17 h,"[3]; yeast strain rs112, 0.02 %",98%
same,viability at 17 h,"[3]; yeast strain rs112, 0.1 %",91%
same,viability at 17 h,"[3]; yeast strain rs112, 0.2 %",37%
